Tests used:
Test in all cases: relative viability (nuclei count vs DMSO), 5 days (fraction); higher = more cells survive
OSI-027 + Tozasertib = compound: COc1cccc2cc(-c3nc([C@H]4CC[C@H](C(=O)O)CC4)n4ncnc(N)c34)[nH]c12 [OSI-027] + Cc1cc(Nc2cc(N3CCN(C)CC3)nc(Sc3ccc(NC(=O)C4CC4)cc3)n2)n[nH]1 [Tozasertib] (partner 0.1 µM)
Outline: (§1)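 Each reported value is a median over duplicate plates. It expresses relative viability: treated-well nuclei count divided by vehicle-well nuclei count. Lung cancer cell lines in 1536-well plates were dosed by pin tool a day after seeding, alone with one drug or with a fixed anchor-drug dose plus five library-drug doses (not always all listed) in √10 steps, and nuclei were counted after 5 days.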

Alpelisib + Palbociclib = compound: Cc1nc(NC(=O)N2CCC[C@H]2C(N)=O)sc1-c1ccnc(C(C)(C)C(F)(F)F)c1 [Alpelisib] + CC(=O)c1c(C)c2cnc(Nc3ccc(N4CCNCC4)cn3)nc2n(C2CCCC2)c1=O [Palbociclib] (partner 0.5 µM)
Outline: as §1

Alpelisib + Linsitinib = compound: Cc1nc(NC(=O)N2CCC[C@H]2C(N)=O)sc1-c1ccnc(C(C)(C)C(F)(F)F)c1 [Alpelisib] + C[C@]1(O)C[C@@H](c2nc(-c3ccc4ccc(-c5ccccc5)nc4c3)c3c(N)nccn32)C1 [Linsitinib] (partner 1 µM)
Outline: as §1

Alpelisib + Tozasertib = compound: Cc1nc(NC(=O)N2CCC[C@H]2C(N)=O)sc1-c1ccnc(C(C)(C)C(F)(F)F)c1 [Alpelisib] + Cc1cc(Nc2cc(N3CCN(C)CC3)nc(Sc3ccc(NC(=O)C4CC4)cc3)n2)n[nH]1 [Tozasertib] (partner 0.1 µM)
Outline: as §1

Cell Line: UMC-11
- relative viability (OSI-027 + Tozasertib; first compound 0.01 µM): 0.235
- relative viability (OSI-027 + Tozasertib; first compound 0.03162 µM): 0.208
- relative viability (OSI-027 + Tozasertib; first compound 0.1 µM): 0.203
- relative viability (OSI-027 + Tozasertib; first compound 0.3162 µM): 0.204
- relative viability (OSI-027 + Tozasertib; first compound 1 µM): 0.2
- relative viability (Alpelisib + Palbociclib; first compound 0.04 µM): 0.333
- relative viability (Alpelisib + Palbociclib; first compound 0.1265 µM): 0.3
- relative viability (Alpelisib + Palbociclib; first compound 0.4 µM): 0.357
- relative viability (Alpelisib + Palbociclib; first compound 1.265 µM): 0.307
- relative viability (Alpelisib + Palbociclib; first compound 4 µM): 0.328
- relative viability (Alpelisib + Linsitinib; first compound 0.04 µM): 0.953
- relative viability (Alpelisib + Linsitinib; first compound 0.1265 µM): 1.03
- relative viability (Alpelisib + Linsitinib; first compound 0.4 µM): 1.09
- relative viability (Alpelisib + Linsitinib; first compound 1.265 µM): 0.995
- relative viability (Alpelisib + Linsitinib; first compound 4 µM): 0.955
- relative viability (Alpelisib + Tozasertib; first compound 0.04 µM): 0.188
- relative viability (Alpelisib + Tozasertib; first compound 0.1265 µM): 0.198
- relative viability (Alpelisib + Tozasertib; first compound 0.4 µM): 0.213
- relative viability (Alpelisib + Tozasertib; first compound 1.265 µM): 0.219
- relative viability (Alpelisib + Tozasertib; first compound 4 µM): 0.186

Reference: the supplement of paper PMC10307832
